Experimental data reported in the NIST ThermoML archive (doi:10.1021/je900048r).

Test: xn = mol fraction of the nth substance listed
Details: Liquid, Other PVT measurement

CCCCn1cc[n+](C)c1.F[B-](F)(F)F [1-butyl-3-methylimidazolium tetrafluoroborate] + CC#N
mass density [kg/m3]
Details	x1 = 0.1	x1 = 0.2	x1 = 0.3	x1 = 0.4	x1 = 0.5	x1 = 0.6	x1 = 0.6999	x1 = 0.7998	x1 = 0.8993	x1 = 1
313.15 K, 200 kPa	893	980	1040	1077	1105	1127	1146	1161	1175	1185
313.15 K, 600 kPa	894	981	1041	1078	1106	1127	1147	1162	1175	1186
313.15 K, 1000 kPa	895	982	1041	1078	1106	1128	1147	1162	1175	1186
313.15 K, 1400 kPa	895	982	1041	1079	1106	1128	1147	1162	1175	1186
313.15 K, 1800 kPa	895	983	1041	1079	1106	1128	1147	1163	1176	1187
313.15 K, 2000 kPa	896	983	1042	1079	1107	1129	1148	1163	1176	1187
353.15 K, 200 kPa	857	947	1008	1047	1076	1098	1118	1134	1148	1159
353.15 K, 600 kPa	858	948	1009	1047	1076	1099	1119	1134	1148	1160
353.15 K, 1000 kPa	858	948	1009	1048	1077	1099	1119	1134	1148	1160
353.15 K, 1400 kPa	858	948	1010	1048	1077	1100	1119	1134	1149	1160
353.15 K, 1800 kPa	859	949	1010	1049	1077	1100	1120	1134	1149	1161
353.15 K, 2000 kPa	859	949	1010	1049	1078	1100	1120	1135	1149	1161
393.15 K, 600 kPa	820	914	978	1018	1048	1072	1092	1108	1123	1135
393.15 K, 1000 kPa	821	915	978	1018	1048	1072	1092	1108	1123	1135
393.15 K, 1400 kPa	821	915	979	1019	1048	1073	1092	1108	1123	1135
393.15 K, 1800 kPa	822	915	979	1019	1049	1073	1093	1108	1123	1136
393.15 K, 2000 kPa	822	916	979	1019	1049	1073	1093	1108	1124	1136
433.15 K, 1000 kPa	781	881	947	989	1021	1045	1066	1082	1098	1112
433.15 K, 1400 kPa	782	882	948	990	1021	1045	1066	1082	1098	1112
433.15 K, 1800 kPa	783	882	948	990	1021	1046	1067	1083	1098	1113
433.15 K, 2000 kPa	783	882	949	990	1021	1046	1067	1083	1099	1113
473.15 K, 1800 kPa	741	847	917	960	993	1018	1040	1057	1072	1086
473.15 K, 2000 kPa	742	848	917	960	993	1019	1041	1057	1073	1087
